Measurements taken from patent US20250099409A1, “TOPICAL THERAPEUTIC” (Beta Biofuel Solutions, LLC, priority 2022, published 2025).

Key:
[1] = system: severe mouth sores, pain, and skin eruptions; test: Example 7: Patient G, oral spray in cancer patient on Taxotere and Carboplatin chemotherapy; format: in vivo, human
Procedure: Set up: The trial consisted of administering a topical therapeutic spray to a cancer patient receiving Taxotere and Carboplatin chemotherapy. The side effects of cancer treatment presented the patient with severe mouth sores, pain, and skin eruptions which prevented regular mastication and intake of food and some beverages. Patient G's tastebuds were also severely affected, and the taste was unreliable. […] About 250 mg/L concentration of sodium pyruvate oral spray was administered inside the mouth and throat at 1 ml per spray, two to three sprays per administration. […] The product was used ad hoc to provide continuous comfort as saliva reintroduced the chemicals causing discomfort. […] However, issues with taste were not improved with the topical therapeutic spray.

[2] = system: redness, burning, and skin inflammation after exposure to irritating vegetation, e.g., poison ivy; test: Example 9: Patient I, spray after exposure to irritating vegetation; format: in vivo, human; conditions: about 250 mg/L with glycerin emollient spray, after the first administration
Procedure: The affected area was cleaned with cold water without soap to remove the oils and waxes transferred from the plant. About 250 mg/L concentration of sodium pyruvate formulated with glycerin emollient spray was applied to the affected areas of the general epidermis.
The topical therapeutic spray was readministered ad hoc depending on the severity of the exposure.

[3] = system: moderate sunburn on the face, shoulders, and arms; test: Example 8: Patient H, spray on moderate sunburn; format: in vivo, human
Procedure: Set up: The trial consisted of administering a topical therapeutic spray to a patient with moderate sunburn on the face, shoulders, and arms early in the summer season while working on a field project. The patient had used sunscreen, but due to the prolonged exposure, the effects of the sunburn were present. The face was particularly red as it was directly exposed to ultraviolet (UV) radiation and not covered by clothing. About 250 mg/L concentration of sodium pyruvate formulated with glycerin emollient spray was applied to the affected areas.
The spray was applied for another day until the redness subsided.

[4] = system: redness, itchy splotches on the underside of the body, and fur-less areas around the ears due to ragweed pollen sensitivity; test: Example 6: Patient F, spray on dog with ragweed pollen sensitivity; format: in vivo, Jack Russel Terrier
Procedure: Set up: The trial consisted of administering a topical therapeutic spray to a 5-year-old Jack Russel Terrier suffering from redness, itchy splotches on the underside of the body, and fur-less areas around the ears due to ragweed pollen sensitivity. […] After cleaning with water and drying the affected areas, about 250 mg/L concentration of sodium pyruvate spray formulated with glycerin was applied to the undercarriage and ears.
Summary: After the first administration, the redness subsided, and the dog relaxed within 15 minutes. The treatment was administered after each time the dog went outside and continued throughout the ragweed pollen season.

[5] = system: epidermal disturbances from psoriatic plaques; test: Example 2: Patient B, topical therapeutic wipe on psoriatic plaques on the back; format: in vivo, human
Procedure: (§1) Set up: The trial consisted of administering a topical therapeutic wipe to patients suffering from epidermal disturbances from psoriatic plaques. […] About 250 mg/L concentration of sodium pyruvate formulated with glycerin emollient imbued was administered to the affected area via an imbued wipe. The treatment was applied twice a day, once in the morning and once in the evening.

[6] = system: epidermal disturbances from psoriatic plaques; test: Example 3: Patient C, roll-on on psoriatic plaques behind ears and scalp; format: in vivo, human
Procedure: as §1, with “spray” for “wipe”, “a patient” for “patients”, “emollient” for “emollient imbued”, “roll-on.” for “wipe.”

[7] = system: rhinitis, and burning in the nose and throat resulting from secondhand cigarette smoke; test: Example 1: Patient A, topical therapeutic spray to nasal cavities and throat; format: in vivo, human
Procedure: Set up: The trial consisted of administering a topical therapeutic spray to a patient suffering from rhinitis, and burning in the nose and throat resulting from persistent and long-term exposure to secondhand cigarette smoke. About 250 mg/L concentration of sodium pyruvate incorporated spray was administered to the nasal cavities and throat at about 1 ml per spray, administered two to three sprays per administration.
The spray treatment was re-applied a couple of hours later. […] The spray was applied prophylactically before bed.

[8] = system: burning throat due to atmospheric dryness, allergic reaction, or disease state reaction; test: Example 10: Patient J, oral spray for burning throat; format: in vivo, human; conditions: about 250 mg/L oral spray, 1 ml per spray, two to three sprays, after the first administration
Procedure: Set up: The trial consisted of administering a topical therapeutic spray to a patient suffering from a burning throat due to atmospheric dryness, allergic reaction, or disease state reaction. About 250 mg/L concentration of sodium pyruvate oral spray was administered inside the mouth and throat at 1 ml per spray, two to three sprays per administration.
The product was used ad hoc to provide continuous comfort.

[9] = system: severe burning, itching, and peeling in the urethral, vaginal, and anal areas; test: Example 5: Patient E, imbued wipe in patient on Taxotere and Carboplatin chemotherapy with monoclonal antibody infusion; format: in vivo, human; conditions: continued administration of wipe
Procedure: Set up: The trial consisted of administering a topical therapeutic imbued wipe to a patient receiving a concurrent Taxotere and Carboplatin chemotherapy, with monoclonal antibody infusion treatments. The side effects of cancer treatment presented the patient with severe burning, itching, and peeling in the urethral, vaginal, and anal areas due to the elimination of the chemicals via urine and stools. About 250 mg/L concentration of sodium pyruvate formulated with glycerin emollient wipe was used to clean the affected areas after elimination, in addition to when the discomforts were present.
Patient E continued using the topical treatment concurrently with cancer therapy, and for about a month after.

[10] = system: redness and burning on the general epidermis and deep muscle pain post-radiation therapy; test: Example 4: Patient D, spray and wipe in breast cancer patient post-radiation therapy; format: in vivo, human
Description: Set up: The trial consisted of administering a topical therapeutic spray and wipe to a breast cancer patient suffering from redness and burning on the general epidermis and deep muscle pain post-radiation therapy treatment. The patient received 30 daily radiation treatments in just over a month. […] The topical therapeutic spray was used afterwards ad hoc.

For `O=C([O-])O.[Na+]` [baking soda], the “alleviation of mouth sores, pain and skin eruptions” value ([1]; applied to the affected areas as recommended, before the topical therapeutic) was “did little to alleviate the problem”.
In the case of `CC(=O)C(=O)[O-].[Na+]` [sodium pyruvate, 2-oxopropanoic acid sodium salt], the “time to reduced burning and itching” value [2] is reported as at most 15 min, the “time to reduced burning” value ([3]; about 250 mg/L with glycerin emollient spray, after the first administration) is reported as at most 15 min and the “blistering and peeling of the skin due to sunburn” value ([3]; spray applied for another day until the redness subsided) is reported as “aided in the prevention of blistering and peeling”. The “time until the redness subsided and the dog relaxed” value ([4]; about 250 mg/L spray with glycerin on undercarriage and ears, after the first administration) was at most 15 min, the “outcome when administration was interrupted” value ([4]; during the pollen season, administration interrupted) was “the itching, redness, and scratching returned” and the “outcome with continuous administration” value ([5]; about 250 mg/L with glycerin emollient, imbued wipe, twice a day) was “itching and burning did not return, and the skin surface returned to normal form”. For the same compound, the “time to reduced burning or itching” value ([5]; about 250 mg/L with glycerin emollient, imbued wipe, twice a day, after administration) was at most 15 min, the “outcome when treatment was interrupted” value ([5]; treatment interrupted) was “the plaques returned along with itching and burning” and the “outcome with continuous administration” value ([6]; about 250 mg/L with glycerin emollient, imbued roll-on, twice a day) was “itching and burning did not return and the skin surface returned to normal form”. The “time to reduced burning and itching” value ([6]; about 250 mg/L with glycerin emollient, imbued roll-on, twice a day, after administration) was at most 15 min, the “outcome when administration was interrupted” value ([6]; administration interrupted) was “the plaques returned along with itching and burning” and the “effect of the second treatment on burning” value ([7]; about 250 mg/L spray re-applied a couple of hours later) was “complete alleviation of the burning to both the nose and throat”. For the same compound, the “time to reduced burning or itching in the affected nasal and throat areas” value ([7]; about 250 mg/L spray, about 1 ml per spray, two to three sprays, after the first administration) was at most 15 min, the “recurrence of pain and burning” value ([7]; spray also applied prophylactically before bed) was “never returned” and the “time to almost complete relief of pain and burn” value ([1]; about 250 mg/L oral spray, 1 ml per spray, two to three sprays, after the first administration) was at most 30 min. For the same compound, the “consumption of food and drinks” value ([1]; oral spray used ad hoc) was “able to regularly consume food and drinks without discomfort”, the issues with taste ([1]; oral spray used ad hoc) was “not improved” and the “sores, pain and discomfort with use of the spray” value ([1]; oral spray used ad hoc) was “the sores resolved, and the pain and discomfort were managed”. The “time to reduced burning, itching, and general discomfort” value [8] was at most 15 min, the “sloughing of damaged skin” value [9] was “ceased within a few days of continued administration” and the “time to reduction in burning” value ([10]; about 250 mg/L with glycerin emollient, after the first administration via an imbued cloth wipe) was at most 30 min. The “blistering to the skin” value ([10]; about 250 mg/L with glycerin emollient, imbued cloth wipe) was “without any blistering to the skin” and the “browning of the affected area (remark of radiation oncologist at follow-up visits)” value ([10]; wipe, then spray ad hoc) was “dissipated more rapidly than usual”.
